What all share (type): in vivo
The test system of one test is Botrytis cinerea. The experiment in a line: Control test of Botrytis rot (gray mold) of cucumber. How it is done: (1) Seedlings of cucumber (Cultivar: Matsukaze) were planted in a pot of 9 cm in diameter. The first leaf was sprayed with 3 ml each of solutions containing the test compound at the concentration of 125 or 31.3 ppm and the plant was dried by the air. After inoculation of the spores of Botrytis cinerea, the plants were kept at 20°±2° C. and 90-100% humidity ((i) protective spraying). Alternatively, the spores were inoculated at first and when the leaves suffered a little (about 2 days after), the solutions of the test compounds were sprayed ((ii) curative spraying). Evaluation was practised 3 days after the inoculation. Percent disease control was calculated by the ratio of diameter of diseased area in treated and untreated plants.
(§1) (1) Test methods and evaluation are the same as those in Tests 2, 4 and 6.

Test [1] relates to Sphaerotheca fuliginea. The experiment in a line: Control test to powdery mildew of cucumber by vapor (filter paper disks). How it is done: (1) The first leaves of young cucumber (Cultivar: Matsukaze) planted in pot of 9 cm in diameter were inoculated with spore suspension of Sphaerotheca fuliginea. After the plants were kept in a greenhouse for 2 days, thin cover plates, 15 mm in diameter, were put on the first leaves. Filter paper disks soaked with 80 μl of test solution at a concentration of 31.3, 7.8, 2.0 or 0.5 ppm were put on the plates for 3 days. Disease degrees were observed 14 days after the inoculation.
It is evaluated as + when an inhibition zone was observed around the plate, as ± when the inhibition zone has nearly the same diameter (8 mm) as that of plate or as - when there is no inhibition zone.
as §1

The test system of test [2] is Sphaerotheca fuliginea. The experiment in a line: Control test to powdery mildew of cucumber (foliar and soil treatment). Particulars: for Powdery mildew, Foliar Treatment, Curative Effect / Powdery mildew, Foliar Treatment, Protective Effect / Powdery mildew, Soil Treatment, Protective Effect / Foliar Treatment, Curative Effect / Foliar Treatment, Protective Effect / Soil Treatment, Protective Effect: index 0-10. How it is done: (1) Seeds of cucumber (Cultivar: Matsukaze) were sown in a pot of 9 cm in diameter and the pots were kept in a green house until the plant was grown for 2-3 leaf stage. The first leaf was sprayed with, (i) 3 ml each of solutions containing the test compound at the prescribed concetrations and dried by the air (foliar treatment). Inoculation of spore suspension of Sphaerotheca fuliginea by spraying was practised 2 days before the treatment (curative effect) or 1 day after the treatment (protective effect). Alternatively, (ii) 5 ml of the solution was applied at the root of the seedlings (soil treatment). The pots were kept in a greenhouse for 2 days and inoculation was practised in the same manner noted above. (iii) After sprayed with 3 ml of a solution of the test compound at a concentration of 125 ppm and dried by the air, the treated pots were set in a greenhouse. Untreated pots were placed next to the treated pots. Those treated and untreated plants were inoculated with spore suspension. Protective effect of the test compounds by vapor was thus checked. The effect was examined 14 days after the inoculation of the spores.
0: Disease sign is observed on the whole leaf.
3: Disease sign is observed on the leaf in about 50%.
5: Disease sign is observed on the leaf in about 30%.
7: Disease sign is observed on the leaf in about 20%.
9: a little disease sign is observed.
as §1

The test system of a further test is Rhizoctonia solani. The experiment in a line: Control test to damping-off of cucumber (Rhizoctonia solani). To be noted: soil drench, 14 days. How it is done:
(1) The fungus causing damping-off of cucumber seedlings, Rhizoctonia solani or Fusarium oxysporum was cultured on a wheat bran medium at 28° C. for 5 days, which was mixed with sterilized soil and cultured for 2 days to prepare the inoculum. Sterilized soil (150 g) was put into a pot of 9 cm in diameter. The surface of the spot was covered with the above inoculum. […] Twenty cucumber seeds (Cultivar: Matsukaze) were sown 2 days after. The pots were kept at 30°±2° C. for 14 days. The infection was observed 14 days after and disease degree and percent disease degree were obtained by setting an evaluation index for each disease sympton.
(2) Evaluation [formula] wherein a: number of seeds without germination b: number of seedlings showing damping-off c: number of wilted seedlings d: number of seedlings being a little brownish in cotyledons or at the bottom of the stem e: number of uninfected seedlings [formula] wherein a: number of seeds without germination or seedlings with damping-off b: number of wilted seedlings c: number of seedlings being a little brownish in cotyledons or at the bottom of the stem d: number of uninfected seedlings [formula]

In another test the test system is Sclerotinia sclerotiorum. Put plainly: Control test to Sclerotinia rot of cucumber. An excerpt:
(1) This test was practised in the same manner as in the above test, control test of Botrytis rot (gray mold) of cucumber, except for using the mycelium of Sclerotinia sclerotiorum as inoculm. The same as in test 2.

The test system of another test is Puccinia coronata. Put plainly: Control test of crown rust of oat. Particulars: 125 ppm. How it is done: (1) Young oats (Cultivar: Pc38) grown in pots in a greenhouse were (i) sprayed with 10 ml each of solution of the test compounds at a prescribed concentration and after air-drying, they were inoculated with 15 mg of uredospores of Puccinia coronata per 20 pots (protective spraying) or (ii) sprayed with the test solution 3 days after inoculation of uredospores. After each plant was kept at 20°-25° C. in a greenhouse for 2 weeks, number of uredia was counted on the first leaf.

For the compound `O[C@]1(c2ccc(Cl)cc2)CCCC[C@H]1n1cncn1` (relative stereo) [Trans-isomer of Compound 22, 1-(4-chlorophenyl)-2-(1,2,4-triazol-1-yl)cyclohexanol, reference compound], the “Gray Mold, Percent Disease Control, Curative Spraying” value with Botrytis cinerea (Table 9, 7.8 ppm) was determined as 0%; with Botrytis cinerea (Table 9, 31.3 ppm), 0%; in the test on Botrytis cinerea (Table 9, 125 ppm), 2%. Further, the “Gray Mold, Percent Disease Control, Protective Spraying” value in the test on Botrytis cinerea (Table 9, 7.8 ppm) is 0%; in the test with Botrytis cinerea (Table 9, 31.3 ppm), 3%; in the test on Botrytis cinerea (Table 9, 125 ppm) it was 3%. For the same compound, the “Powdery mildew, Vapor Effect” value in the test on Sphaerotheca fuliginea [1] (Table 9, 2.0 ppm) was “-”; in the test with Sphaerotheca fuliginea [1] (Table 9, 7.8 ppm) it was “-”; with Sphaerotheca fuliginea [1] (Table 9, 31.3 ppm), “-”. Besides, the “Powdery mildew, Foliar Treatment, Curative Effect” value with Sphaerotheca fuliginea [2] (Table 9, 0.03 ppm) is given as 0; with Sphaerotheca fuliginea [2] (Table 9, 0.12 ppm), 0; with Sphaerotheca fuliginea [2] (Table 9, 0.5 ppm), 5 (Disease sign is observed on the leaf in about 30%.); in the test on Sphaerotheca fuliginea [2] (Table 9, 2.0 ppm), 9. Also, the “Powdery mildew, Foliar Treatment, Protective Effect” value with Sphaerotheca fuliginea [2] (Table 9, 0.03 ppm) is given as 0; in the test with Sphaerotheca fuliginea [2] (Table 9, 0.12 ppm), 0; in the test with Sphaerotheca fuliginea [2] (Table 9, 0.5 ppm), 3 (Disease sign is observed on the leaf in about 50%.); in the test on Sphaerotheca fuliginea [2] (Table 9, 2.0 ppm) it was 10. Besides, the “Powdery mildew, Soil Treatment, Protective Effect” value in the test with Sphaerotheca fuliginea [2] (Table 9, 0.5 ppm) is recorded as 0; with Sphaerotheca fuliginea [2] (Table 9, 2.0 ppm), 0; in the test with Sphaerotheca fuliginea [2] (Table 9, 7.8 ppm), 0; in the test with Sphaerotheca fuliginea [2] (Table 9, 31.3 ppm), 5 (Disease sign is observed on the leaf in about 30%.).
For `O[C@]1(c2ccc(F)cc2)CCCC[C@H]1n1cncn1` (relative stereo) [Trans-isomer of Compound 28, 1-(4-fluorophenyl)-2-(1,2,4-triazol-1-yl)cyclohexanol, reference compound], the “Gray Mold, Percent Disease Control, Curative Spraying” value is reported as 0% in the test on Botrytis cinerea (Table 9, 7.8 ppm); 0% in the test on Botrytis cinerea (Table 9, 31.3 ppm); 9% with Botrytis cinerea (Table 9, 125 ppm). The “Gray Mold, Percent Disease Control, Protective Spraying” value stood at 3% with Botrytis cinerea (Table 9, 7.8 ppm); 5% in the test with Botrytis cinerea (Table 9, 31.3 ppm); 0% in the test with Botrytis cinerea (Table 9, 125 ppm). The “Powdery mildew, Vapor Effect” value in the test on Sphaerotheca fuliginea [1] (Table 9, 2.0 ppm) is recorded as “-”; in the test with Sphaerotheca fuliginea [1] (Table 9, 7.8 ppm), “-”; in the test with Sphaerotheca fuliginea [1] (Table 9, 31.3 ppm) it was “-”. In addition, the “Powdery mildew, Foliar Treatment, Curative Effect” value is listed as 0 in the test on Sphaerotheca fuliginea [2] (Table 9, 0.03 ppm); 0 in the test with Sphaerotheca fuliginea [2] (Table 9, 0.12 ppm); 0 in the test on Sphaerotheca fuliginea [2] (Table 9, 0.5 ppm); 9 in the test on Sphaerotheca fuliginea [2] (Table 9, 2.0 ppm). The “Powdery mildew, Foliar Treatment, Protective Effect” value with Sphaerotheca fuliginea [2] (Table 9, 0.03 ppm) turned out to be 0; with Sphaerotheca fuliginea [2] (Table 9, 0.12 ppm), 0; with Sphaerotheca fuliginea [2] (Table 9, 0.5 ppm), 0; in the test with Sphaerotheca fuliginea [2] (Table 9, 2.0 ppm), 0. Further, the “Powdery mildew, Soil Treatment, Protective Effect” value in the test on Sphaerotheca fuliginea [2] (Table 9, 0.5 ppm) came out at 0; in the test on Sphaerotheca fuliginea [2] (Table 9, 2.0 ppm), 0; in the test on Sphaerotheca fuliginea [2] (Table 9, 7.8 ppm), 0; in the test with Sphaerotheca fuliginea [2] (Table 9, 31.3 ppm), 9.
As for `Cc1ccccc1C(=O)Nc1cccc(OC(C)C)c1` [Mepronil, reference compound], in the test on Rhizoctonia solani (47 ppm), the “Disease Degree” value came to 77 and the “Percent Disease Control” value is 23%. In addition, in the test with Rhizoctonia solani (750 ppm), the “Disease Degree” value came out at 5 and the “Percent Disease Control” value turned out to be 95%.
With `O[C@@]1(c2ccc(F)cc2)CCCCC[C@H]1n1cncn1` (relative stereo) [Compound 30], the “Percent Disease Control, Curative Spraying” value in the test with Sclerotinia sclerotiorum (31.3 ppm) came out at 94%; in the test on Sclerotinia sclerotiorum (125 ppm) it was 96%; with Botrytis cinerea (Table 2, 31.3 ppm), 86%; in the test on Botrytis cinerea (Table 2, 125 ppm), 94%. The “Percent Disease Control, Protective Spraying” value was 89% in the test on Sclerotinia sclerotiorum (31.3 ppm); 100% in the test on Sclerotinia sclerotiorum (125 ppm); 89% in the test with Botrytis cinerea (Table 2, 31.3 ppm); 100% in the test on Botrytis cinerea (Table 2, 125 ppm). Also, the “Disease Degree” value in the test on Rhizoctonia solani (31.3 ppm) is listed as 18. Moreover, the “Percent Disease Control” value in the test with Rhizoctonia solani (31.3 ppm) worked out at 82%. For the same compound, the “Protective Effect by Vapor” value in the test with Sphaerotheca fuliginea [1] (Table 6, 0.5 ppm) is on record as “-”; in the test on Sphaerotheca fuliginea [1] (Table 6, 2.0 ppm), “-”; in the test with Sphaerotheca fuliginea [1] (Table 6, 7.8 ppm) it was “+”; with Sphaerotheca fuliginea [1] (Table 6, 31.3 ppm), “+”. Further, the “Foliar Treatment, Curative Effect” value is 7 (Disease sign is observed on the leaf in about 20%.) with Sphaerotheca fuliginea [2] (second Table 4, 0.5 ppm); 10 in the test with Sphaerotheca fuliginea [2] (second Table 4, 2.0 ppm); 10 in the test with Sphaerotheca fuliginea [2] (second Table 4, 7.8 ppm); 10 with Sphaerotheca fuliginea [2] (second Table 4, 31.3 ppm). Also, the “Foliar Treatment, Protective Effect” value with Sphaerotheca fuliginea [2] (second Table 4, 0.5 ppm) worked out at 0; in the test with Sphaerotheca fuliginea [2] (second Table 4, 2.0 ppm) it was 9; in the test on Sphaerotheca fuliginea [2] (second Table 4, 7.8 ppm), 10; in the test on Sphaerotheca fuliginea [2] (second Table 4, 31.3 ppm) it was 10. Further, the “Soil Treatment, Protective Effect” value in the test on Sphaerotheca fuliginea [2] (second Table 4, 0.5 ppm) came out at 0; in the test on Sphaerotheca fuliginea [2] (second Table 4, 2.0 ppm) it was 0; in the test with Sphaerotheca fuliginea [2] (second Table 4, 7.8 ppm), 10; in the test with Sphaerotheca fuliginea [2] (second Table 4, 31.3 ppm), 10.
On to `O[C@@]1(c2cccc3ccccc23)CCCC[C@H]1n1cncn1` (relative stereo) [Compound 1, cis-1-(1-naphthyl)-2-(1,2,4-triazol-1-yl)/cyclohexanol], for which the “Protective Index, Foliar Treatment” value in the test with Sphaerotheca fuliginea [2] (first Table 4, 125 ppm, foliar, 14 days) is on record as 10. Moreover, in the test on Sphaerotheca fuliginea [2] (first Table 4, 125 ppm, soil, 14 days), the “Protective Index, Soil Treatment” value was 5 (Disease sign is observed on the leaf in about 30%.). Moreover, in the test on Puccinia coronata, the “Percent Disease Control, Curative Spraying” value turned out to be 100% and the “Percent Disease Control, Protective Spraying” value is listed as 100%.
Turning to `CC(C)(C)C(=O)C(Oc1ccc(Cl)cc1)n1cncn1` (stereo not shown) [Triadimefon, reference compound], the “Protective Effect by Vapor” value in the test on Sphaerotheca fuliginea [1] (Table 6, 0.5 ppm) is on record as “-”; with Sphaerotheca fuliginea [1] (Table 6, 2.0 ppm) it was “-”; in the test with Sphaerotheca fuliginea [1] (Table 6, 7.8 ppm), “-”; in the test on Sphaerotheca fuliginea [1] (Table 6, 31.3 ppm), “-”. Moreover, the “Foliar Treatment, Curative Effect” value with Sphaerotheca fuliginea [2] (second Table 4, 0.5 ppm) is on record as 0; in the test with Sphaerotheca fuliginea [2] (second Table 4, 2.0 ppm) it was 9; in the test on Sphaerotheca fuliginea [2] (second Table 4, 7.8 ppm), 10; with Sphaerotheca fuliginea [2] (second Table 4, 31.3 ppm) it was 10. Moreover, the “Foliar Treatment, Protective Effect” value is listed as 0 with Sphaerotheca fuliginea [2] (second Table 4, 0.5 ppm); 7 (Disease sign is observed on the leaf in about 20%.) with Sphaerotheca fuliginea [2] (second Table 4, 2.0 ppm); 9 in the test with Sphaerotheca fuliginea [2] (second Table 4, 7.8 ppm); 10 in the test on Sphaerotheca fuliginea [2] (second Table 4, 31.3 ppm). In addition, the “Soil Treatment, Protective Effect” value in the test with Sphaerotheca fuliginea [2] (second Table 4, 0.5 ppm) is recorded as 0; in the test on Sphaerotheca fuliginea [2] (second Table 4, 2.0 ppm) it was 0; in the test with Sphaerotheca fuliginea [2] (second Table 4, 7.8 ppm), 3 (Disease sign is observed on the leaf in about 50%.); in the test on Sphaerotheca fuliginea [2] (second Table 4, 31.3 ppm), 10. Moreover, the “Percent Disease Control, Curative Spraying” value in the test with Puccinia coronata came out at 100%. In addition, the “Percent Disease Control, Protective Spraying” value in the test with Puccinia coronata was determined as 100%.

These data come from patent US5091539A, “Azolyl cycloalkanol derivatives and agricultural fungicides” (Shionogi & Co., Ltd., priority 1984, dated 1992).
